In patent US9255090B2, “Heterocyclyl derivatives and their use as prostaglandin D2 receptor modulators” (Actelion Pharmaceuticals Ltd., priority 2012, dated 2016):

What was measured:
eosinophils = experiment: Eosinophil shape change assay with human plasma; assay type: cell-based; conditions: human plasma (50%), PGD2 100 nM activation, antagonistic activity
How it was run: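 Human polymorphonuclear cells stained with anti-CD49d-APC, combined with compound-preincubated human plasma (50% of final volume, 4×10^6 cells/ml) for 10 min at 37° C., then stimulated 5 min with 100 nM PGD2 and fixed. Flow cytometry scored percent eosinophils with increased forward scatter.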

hCRTH2 receptor = hCRTH2 receptor (Homo sapiens (Human), UniProt Q9Y5Y4); experiment: hCRTH2 receptor membranes radioligand (3H-PGD2) displacement assay; assay type: binding; conditions: 3H-PGD2 radioligand displacement, HEK293-hCRTH2 membranes
How it was run: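 Compound was first mixed with buffer, then 3H-PGD2 was added at 2.5 nM, and the reaction was started with hCRTH2 membranes from HEK293 cells at 20 μg/well. After 90 min at room temperature, mixtures were filtered and washed with ice-cold buffer, and retained radioactivity was counted.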

Chain of hCRTH2 receptor (Q9Y5Y4 whole entry): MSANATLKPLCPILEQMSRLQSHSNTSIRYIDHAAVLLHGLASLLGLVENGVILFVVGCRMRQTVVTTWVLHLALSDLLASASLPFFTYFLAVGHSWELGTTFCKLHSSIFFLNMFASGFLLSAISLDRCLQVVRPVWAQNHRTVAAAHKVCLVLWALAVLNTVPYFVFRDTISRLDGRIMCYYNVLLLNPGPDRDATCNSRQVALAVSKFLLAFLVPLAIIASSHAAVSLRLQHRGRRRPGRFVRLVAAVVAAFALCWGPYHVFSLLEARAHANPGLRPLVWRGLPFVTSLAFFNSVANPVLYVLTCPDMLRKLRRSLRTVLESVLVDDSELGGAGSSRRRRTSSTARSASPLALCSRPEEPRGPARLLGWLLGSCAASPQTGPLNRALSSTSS

Row | SMILES | IC50 (eosinophils; Homo sapiens, Eosinophil) | IC50 (hCRTH2 receptor) | IC50 (eosinophils)
1 | COc1ccc(OCC(=O)O)cc1-c1ccc(F)c2c1CN(C(=O)[C@@H]1C[C@H]1c1ccccc1)CC2 [Example 182, {3-[5-Fluoro-2-((1R,2R)-2-phenyl-cyclopropanecarbonyl)-1,2,3,4-tetrahydro-isoquinolin-8-yl]-4-methoxy-phenoxy}-acetic acid] | 34 nM | 4.36 nM | –
2 | COc1cc(CC(=O)O)ccc1-c1ccc(F)c2c1CN(C(=O)CCc1cn(C)c3ccccc13)CC2 [Example 183, (4-{5-Fluoro-2-[3-(1-methyl-1H-indol-3-yl)-propionyl]-1,2,3,4-tetrahydro-isoquinolin-8-yl}-3-methoxy-phenyl)-acetic acid] | 194 nM | 0.46 nM | –
3 | COc1cc(CC(=O)O)ccc1-c1ccc(F)c2c1CN(C(=O)CCCc1ccccc1F)CC2 [Example 185, (4-{5-Fluoro-2-[4-(2-fluoro-phenyl)-butyryl]-1,2,3,4-tetrahydro-isoquinolin-8-yl}-3-methoxy-phenyl)-acetic acid] | 97 nM | 1.28 nM | –
4 | COc1cc(CC(=O)O)ccc1-c1ccc(F)c2c1CN(C(=O)CCCc1ccccc1)CC2 [Example 187, {4-[5-Fluoro-2-(4-phenyl-butyryl)-1,2,3,4-tetrahydro-isoquinolin-8-yl]-3-methoxy-phenyl}-acetic acid] | 91 nM | 0.89 nM | –
5 | COc1cc(CC(=O)O)ccc1-c1ccc(F)c2c1CN(C(=O)CC(C)(C)c1ccccc1)CC2 [Example 188, {4-[5-Fluoro-2-(3-methyl-3-phenyl-butyryl)-1,2,3,4-tetrahydro-isoquinolin-8-yl]-3-methoxy-phenyl}-acetic acid] | 8 nM | 0.53 nM | –
6 | COc1cc(CC(=O)O)ccc1-c1ccc(F)c2c1CN(C(=O)C[C@@H](C)c1ccccc1)CC2 [Example 189, {4-[5-Fluoro-2-((R)-3-phenyl-butyryl)-1,2,3,4-tetrahydro-isoquinolin-8-yl]-3-methoxy-phenyl}-acetic acid] | 62 nM | 1.04 nM | –
7 | COc1cc(CC(=O)O)ccc1-c1ccc(F)c2c1CN(C(=O)COCc1ccccc1Cl)CC2 [Example 193, (4-{2-[2-(2-Chloro-benzyloxy)-acetyl]-5-fluoro-1,2,3,4-tetrahydro-isoquinolin-8-yl}-3-methoxy-phenyl)-acetic acid] | 94 nM | 1.38 nM | –
8 | COc1cc(CC(=O)O)ccc1-c1ccc(F)c2c1CN(C(=O)CCc1ccccc1C)CC2 [Example 194, {4-[5-Fluoro-2-(3-o-tolyl-propionyl)-1,2,3,4-tetrahydro-isoquinolin-8-yl]-3-methoxy-phenyl}-acetic acid] | 188 nM | 0.75 nM | –
9 | CCOc1ccc(CC(=O)O)cc1-c1ccc(F)c2c1CN(C(=O)OCc1ccccc1)CC2 [Example 195, 8-(5-Carboxymethyl-2-ethoxy-phenyl)-5-fluoro-3,4-dihydro-1H-isoquinoline-2-carboxylic acid benzyl ester] | 21 nM | 1.06 nM | –
10 | CCCOc1ccc(CC(=O)O)cc1-c1ccc(F)c2c1CN(C(=O)OCc1ccccc1)CC2 [Example 197, 8-(5-Carboxymethyl-2-propoxy-phenyl)-5-fluoro-3,4-dihydro-1H-isoquinoline-2-carboxylic acid benzyl ester] | 24 nM | 0.28 nM | –
11 | CC(C)COc1ccc(CC(=O)O)cc1-c1ccc(F)c2c1CN(C(=O)OCc1ccccc1)CC2 [Example 198, 8-(5-Carboxymethyl-2-isobutoxy-phenyl)-5-fluoro-3,4-dihydro-1H-isoquinoline-2-carboxylic acid benzyl ester] | 72 nM | 1.28 nM | –
12 | COCCOc1ccc(CC(=O)O)cc1-c1ccc(F)c2c1CN(C(=O)OCc1ccccc1)CC2 [Example 199, 8-[5-Carboxymethyl-2-(2-methoxy-ethoxy)-phenyl]-5-fluoro-3,4-dihydro-1H-isoquinoline-2-carboxylic acid benzyl ester] | 19 nM | 0.49 nM | –
13 | CCOc1ccc(CC(=O)O)cc1-c1ccc(F)c2c1CN(C(=O)CC(C)c1ccccn1)CC2 (stereo not shown) [Example 203, {4-Ethoxy-3-[5-fluoro-2-(3-pyridin-2-yl-butyryl)-1,2,3,4-tetrahydro-isoquinolin-8-yl]-phenyl}-acetic acid] | – | 2.9 nM | 12 nM
14 | CCOc1ccc(CC(=O)O)cc1-c1ccc(F)c2c1CN(C(=O)CC(C)c1ccccn1)CC2 (stereo not shown) [Example 204, {4-Ethoxy-3-[5-fluoro-2-(3-pyridin-2-yl-butyryl)-1,2,3,4-tetrahydro-isoquinolin-8-yl]-phenyl}-acetic acid] | – | 2.9 nM | 30 nM
15 | CCOc1cc(CC(=O)O)ccc1-c1ccc(F)c2c1CN(C(=O)CC1OCCc3ccccc31)CC2 (stereo not shown) [Example 205, {3-Ethoxy-4-[5-fluoro-2-(2-isochroman-1-yl-acetyl)-1,2,3,4-tetrahydro-isoquinolin-8-yl]-phenyl}-acetic acid] | 17 nM | 1 nM | –
16 | CCOc1cc(CC(=O)O)ccc1-c1ccc(F)c2c1CN(C(=O)CC1OCCc3ccccc31)CC2 (stereo not shown) [Example 206, {3-Ethoxy-4-[5-fluoro-2-(2-isochroman-1-yl-acetyl)-1,2,3,4-tetrahydro-isoquinolin-8-yl]-phenyl}-acetic acid] | – | 2.4 nM | 14 nM
17 | CCOc1ccc(CC(=O)O)cc1-c1ccc(F)c2c1CN(C(=O)CC(C)c1ccc(F)cc1)CC2 (stereo not shown) [Example 211, (4-Ethoxy-3-{5-fluoro-2-[3-(4-fluoro-phenyl)-butyryl]-1,2,3,4-tetrahydro-isoquinolin-8-yl}-phenyl)-acetic acid] | 7 nM | 2.6 nM | –
18 | CCOc1ccc(CC(=O)O)cc1-c1ccc(F)c2c1CN(C(=O)C(C)Cc1ccccc1)CC2 (stereo not shown) [Example 214] | 11 nM | 3.1 nM | –
19 | CC(C)Oc1cc(CC(=O)O)ccc1-c1ccc(F)c2c1CN(C(=O)OCc1ccccc1)CC2 [Example 217, 8-(4-Carboxymethyl-2-isopropoxy-phenyl)-5-fluoro-3,4-dihydro-1H-isoquinoline-2-carboxylic acid benzyl ester] | 46 nM | 2.3 nM | –
20 | CCOc1ccc(CC(=O)O)cc1-c1ccc(F)c2c1CN(C(=O)C[C@@H](C)c1ccccc1)CC2 [Example 221, {4-Ethoxy-3-[5-fluoro-2-((R)-3-phenyl-butyryl)-1,2,3,4-tetrahydro-isoquinolin-8-yl]-phenyl}-acetic acid] | 34 nM | 1.2 nM | –
21 | CCOc1ccc(CC(=O)O)cc1-c1ccc(F)c2c1CN(C(=O)CC1(c3ccccc3)CC1)CC2 [Example 222, (4-Ethoxy-3-{5-fluoro-2-[2-(1-phenyl-cyclopropyl)-acetyl]-1,2,3,4-tetrahydro-isoquinolin-8-yl}-phenyl)-acetic acid] | 21 nM | 26.4 nM | –
22 | CCOc1ccc(CC(=O)O)cc1-c1ccc(F)c2c1CN(C(=O)CC(C)(C)c1ccc(F)cc1)CC2 [Example 223, (4-Ethoxy-3-{5-fluoro-2-[3-(4-fluoro-phenyl)-3-methyl-butyryl]-1,2,3,4-tetrahydro-isoquinolin-8-yl}-phenyl)-acetic acid] | 19 nM | 15 nM | –
23 | CCOc1ccc(CC(=O)O)cc1-c1ccc(F)c2c1CN(C(=O)CC(C)(C)c1ccccc1)CC2 [Example 225, {4-Ethoxy-3-[5-fluoro-2-(3-methyl-3-phenyl-butyryl)-1,2,3,4-tetrahydro-isoquinolin-8-yl]-phenyl}-acetic acid] | 37 nM | 11.7 nM | –
24 | CCOc1cc(CC(=O)O)ccc1-c1ccc(F)c2c1CN(C(=O)CC1(c3ccccc3)CC1)CC2 [Example 230, (3-Ethoxy-4-{5-fluoro-2-[2-(1-phenyl-cyclopropyl)-acetyl]-1,2,3,4-tetrahydro-isoquinolin-8-yl}-phenyl)-acetic acid] | 19 nM | 1 nM | –
25 | CCOc1cc(CC(=O)O)ccc1-c1ccc(F)c2c1CN(C(=O)C[C@@H](C)c1ccccc1)CC2 [Example 234, {3-Ethoxy-4-[5-fluoro-2-((R)-3-phenyl-butyryl)-1,2,3,4-tetrahydro-isoquinolin-8-yl]-phenyl}-acetic acid] | 47 nM | 0.9 nM | –
26 | CCOc1cc(CC(=O)O)ccc1-c1ccc(F)c2c1CN(C(=O)CC(C)(C)c1ccc(F)cc1)CC2 [Example 237, (3-Ethoxy-4-{5-fluoro-2-[3-(4-fluoro-phenyl)-3-methyl-butyryl]-1,2,3,4-tetrahydro-isoquinolin-8-yl}-phenyl)-acetic acid] | 9 nM | 0.3 nM | –
27 | CCOc1cc(CC(=O)O)ccc1-c1ccc(F)c2c1CN(C(=O)CC(C)(C)c1ccccc1)CC2 [Example 238, {3-Ethoxy-4-[5-fluoro-2-(3-methyl-3-phenyl-butyryl)-1,2,3,4-tetrahydro-isoquinolin-8-yl]-phenyl}-acetic acid] | 15 nM | 0.6 nM | –
28 | COc1ccc(CC(=O)O)cc1-c1ccc(F)c2c1CN(C(=O)CC(C)(C)c1cccc(F)c1)CC2 [Example 252, (3-{5-Fluoro-2-[3-(3-fluoro-phenyl)-3-methyl-butyryl]-1,2,3,4-tetrahydro-isoquinolin-8-yl}-4-methoxy-phenyl)-acetic acid] | 258 nM | 13.2 nM | –
29 | COc1ccc(CC(=O)O)cc1-c1ccc(F)c2c1CN(C(=O)CC1(c3ccccc3)CC1)CC2 [Example 258, (3-{5-Fluoro-2-[2-(1-phenyl-cyclopropyl)-acetyl]-1,2,3,4-tetrahydro-isoquinolin-8-yl}-4-methoxy-phenyl)-acetic acid] | 101 nM | 2.8 nM | –
